{"source": "paper PMC4331153", "about": "“In Vitro Inhibitory and Cytotoxic Activity of MFM 501, a Novel Codonopsinine Derivative, against Methicillin-Resistant Staphylococcus aureus Clinical Isolates” (BioMed Research International, 2015)", "assay_type_in_all_cases": "cell-based", "key": {"[1]": {"test_system": "S. aureus ATCC 33591 (MRSA reference strain)", "assay": "MIC determination, broth microdilution, ATCC 33591", "conditions": "Staphylococcus aureus"}, "S. aureus isolate U949": {"test_system": "S. aureus isolate U949", "assay": "MIC determination, broth microdilution, isolate U949", "conditions": "Staphylococcus aureus"}, "[2]": {"test_system": "S. aureus ATCC 25923 (MSSA reference strain)", "assay": "MIC determination, broth microdilution, ATCC 25923", "conditions": "Staphylococcus aureus"}, "S. aureus isolate N441": {"test_system": "S. aureus isolate N441", "assay": "MIC determination, broth microdilution, isolate N441", "conditions": "Staphylococcus aureus"}, "[3]": {"test_system": "S. aureus isolates (MRSA and MSSA)", "assay": "MIC determination, S. aureus isolates (MRSA and MSSA)", "conditions": "Staphylococcus aureus, ATCC 25923 / ATCC 33591 / MRSA / MSSA; all four test isolates (N441, U949, ATCC 25923, ATCC 33591), preliminary evaluation"}}, "note": "Like-named read-outs stand apart in the source and are kept apart here."}
{"smiles": "CCCCCCC1C(C(=O)OCC)=C(O)C(=O)N1C", "note": "(stereo not drawn) [16e]", "values": [{"measurement": "MIC", "setting": "[1]; ATCC 33591, read-out: MIC", "value": 125, "unit": "µg/mL"}, {"measurement": "MIC", "setting": "S. aureus isolate U949; isolate U949, read-out: MIC", "value": 125, "unit": "µg/mL"}, {"measurement": "MIC", "setting": "[2]; ATCC 25923, read-out: MIC", "value": 250, "unit": "µg/mL"}, {"measurement": "MIC", "setting": "S. aureus isolate N441; isolate N441, read-out: MIC", "value": 125, "unit": "µg/mL"}, {"measurement": "MIC", "setting": "[3]", "value": "125 to 250", "unit": "µg/mL"}]}
{"smiles": "CCOC(=O)C1=C(O)C(=O)N(Cc2ccccc2)C1c1ccc(OC)cc1", "note": "(stereo not drawn) [26e]", "values": [{"measurement": "MIC", "setting": "[1]; ATCC 33591, read-out: MIC", "value": 125, "unit": "µg/mL"}, {"measurement": "MIC", "setting": "S. aureus isolate U949; isolate U949, read-out: MIC", "value": 250, "unit": "µg/mL"}, {"measurement": "MIC", "setting": "[2]; ATCC 25923, read-out: MIC", "value": 250, "unit": "µg/mL"}, {"measurement": "MIC", "setting": "S. aureus isolate N441; isolate N441, read-out: MIC", "value": 125, "unit": "µg/mL"}, {"measurement": "MIC", "setting": "[3]", "value": "125 to 250", "unit": "µg/mL"}]}
{"smiles": "C=CCOc1ccc(C2C(C(=O)OCC)=C(O)C(=O)N2C)cc1", "note": "(stereo not drawn) [27e]", "values": [{"measurement": "MIC", "setting": "[1]; ATCC 33591, read-out: MIC", "value": "> 1000", "unit": "µg/mL"}, {"measurement": "MIC", "setting": "S. aureus isolate U949; isolate U949, read-out: MIC", "value": "> 1000", "unit": "µg/mL"}, {"measurement": "MIC", "setting": "[2]; ATCC 25923, read-out: MIC", "value": "> 1000", "unit": "µg/mL"}, {"measurement": "MIC", "setting": "S. aureus isolate N441; isolate N441, read-out: MIC", "value": "> 1000", "unit": "µg/mL"}]}
{"smiles": "Cc1onc(-c2ccccc2)c1C(=O)N[C@@H]1C(=O)N2[C@@H]1SC(C)(C)[C@@H]2C(=O)O", "note": "[Oxacillin, reference compound]", "values": [{"measurement": "MIC", "setting": "[1]; ATCC 33591, read-out: MIC", "value": 250, "unit": "µg/mL"}, {"measurement": "MIC", "setting": "S. aureus isolate U949; isolate U949, read-out: MIC", "value": 500, "unit": "µg/mL"}, {"measurement": "MIC", "setting": "[2]; ATCC 25923, read-out: MIC", "value": 0.24, "unit": "µg/mL"}, {"measurement": "MIC", "setting": "S. aureus isolate N441; isolate N441, read-out: MIC", "value": 500, "unit": "µg/mL"}]}
{"smiles": "CN[C@H](CC(C)C)C(=O)N[C@H]1C(=O)N[C@@H](CC(N)=O)C(=O)N[C@H]2C(=O)N[C@H]3C(=O)N[C@H](C(=O)N[C@H](C(=O)O)c4cc(O)cc(O)c4-c4cc3ccc4O)[C@H](O)c3ccc(c(Cl)c3)Oc3cc2cc(c3O[C@@H]2O[C@H](CO)[C@@H](O)[C@H](O)[C@H]2O[C@H]2C[C@](C)(N)[C@H](O)[C@H](C)O2)Oc2ccc(cc2Cl)[C@H]1O", "note": "[Vancomycin, reference compound]", "values": [{"measurement": "MIC", "setting": "[1]", "value": 3.13, "unit": "µg/mL"}, {"measurement": "MIC", "setting": "S. aureus isolate U949", "value": 1.56, "unit": "µg/mL"}, {"measurement": "MIC", "setting": "[2]", "value": 0.78, "unit": "µg/mL"}, {"measurement": "MIC", "setting": "S. aureus isolate N441", "value": 1.56, "unit": "µg/mL"}]}
{"smiles": "CCOC(=O)C1=C(O)C(=O)N(C)C1c1ccc(C)cc1", "note": "(stereo not drawn) [compound 19e]", "values": [{"measurement": "MIC", "setting": "[1]; ATCC 33591, read-out: MIC", "value": 500, "unit": "µg/mL"}, {"measurement": "MIC", "setting": "S. aureus isolate U949; isolate U949, read-out: MIC", "value": 500, "unit": "µg/mL"}, {"measurement": "MIC", "setting": "[2]; ATCC 25923, read-out: MIC", "value": 1000, "unit": "µg/mL"}, {"measurement": "MIC", "setting": "S. aureus isolate N441; isolate N441, read-out: MIC", "value": 500, "unit": "µg/mL"}, {"measurement": "MIC", "setting": "[3]", "value": "500 to 1000", "unit": "µg/mL"}]}
